Publication PMC5404542, “In Vitro and In Vivo Antifungal Profile of a Novel and Long-Acting Inhaled Azole, PC945, on Aspergillus fumigatus Infection” (Antimicrobial Agents and Chemotherapy, 2017)
Converted amounts (≈) assume the structure as drawn. Where two headings read alike, the source gives them in different places. Marks after values point to notes of the source that are not given here.

Key:
[1] = system: Lichtheimia corymbifera (ATCC 7909); test: MIC, CLSI; assay type: cell-based; conditions: ATCC7909, 1 strain
[2] = system: BEAS2B cells infected with A. fumigatus; test: Persistence of action on bronchial epithelial cells (galactomannan in supernatant); assay type: cell-based, Aspergillus fumigatus; conditions: for IC50: Aspergillus fumigatus, BEAS-2B
Method: The persistence of action of test agents was evaluated on immortalized bronchial epithelial cells (BEAS2B cells). […] Test and reference articles or undiluted DMSO (as vehicle) (0.5 μl/well) was added to the appropriate wells of the washout plate to give a final concentration of 0.5% DMSO. The plate was incubated for exactly 1 h at 37°C and 5% CO2. After the incubation time had elapsed, all wells on the washout plate were aspirated, and growth medium (100 μl/well) was added across the plate. After 24 h of incubation at 37°C, test and reference articles or undiluted DMSO (as vehicle) (0.5 μl/well) was added to the appropriate wells of the nonwashout plate to give a final concentration of 0.5% DMSO. The plate was incubated for exactly 1 h at 37°C and 5% CO2, after which A. fumigatus conidia were added across both plates to a final concentration of 1 × 10^3/well.

[3] = system: A. fumigatus hyphae (NCPF2010); test: Persistence of action on A. fumigatus hyphae (resazurin-based microtiter assay); conditions: for IC50: Aspergillus fumigatus, NCPF2010, 16 h, read-out: Hyphae IC50, No washout; for Hyphae Fold change: washout versus no washout
Method: The persistence of action of test agents was calculated for A. fumigatus hyphae (NCPF2010). […] The plates were incubated for exactly 20 min at 35°C and 5% CO2. After the incubation time had elapsed, all wells on the designated washout plate were aspirated, and growth medium (100 μl/well) was added across the plate. […] Resazurin (0.04%; diluted in growth medium) was added to all wells of both nonwashout and washout plates (5 μl/well) to give a final concentration of 0.002% resazurin. The plates were incubated at 35°C and 5% CO2 for 16 h. […] The percent inhibition for each well was calculated, and the IC50 was calculated from the concentration-response curve generated for each test compound by use of a four-parameter logistic equation (Dotmatics, Bishops Stortford, United Kingdom).

Plasma protein binding = assay type: in vitro ADME
[4] = system: Aspergillus niger (ATCC 1015); test: MIC, EUCAST; assay type: cell-based; conditions: ATCC1015, 1 strain, EUCAST, read-out: MIC
[5] = system: 96 clinically isolated A. fumigatus strains; test: MIC against 96 clinically isolated strains (EUCAST, visual)
Method: Conidia were added across the plate to a final concentration of 1 × 10^5 ml^−1. […] Determination of antifungal activity against 50 A. fumigatus clinical isolates from St. Louis Hospital (Paris, France) was performed with 96-well plates, using the modified EUCAST method in the presence of 0.5% BSA as described above. Antifungal susceptibility testing of 46 A. fumigatus isolates (obtained from the NW England Mycology Reference Centre) was performed by Evotec UK Ltd. (Manchester, United Kingdom) according to EUCAST guidelines.

[6] = system: Cryptococcus gattii (clinical isolate); test: MIC, EUCAST; assay type: cell-based; conditions: 1 strain
[7] = system: Aspergillus carbonarius (ATCC 8740); test: MIC, CLSI; assay type: cell-based; conditions: ATCC8740, 1 strain, CLSI, read-out: MIC
[8] = system: Rhizopus oryzae (ATCC 11145); test: MIC, CLSI; assay type: cell-based
[9] = system: Chaetomium globosum (ATCC 44699); test: MIC, CLSI; assay type: cell-based; conditions: ATCC44699, 1 strain
[10] = system: Rhizomucor pusillus (ATCC 16458); test: MIC, CLSI; assay type: cell-based; conditions: ATCC16458, 1 strain
A. fumigatus = A. fumigatus sterol analysis by GC-MS; assay type: cell-based, Aspergillus fumigatus; conditions: 2 h
Method: A working suspension of A. fumigatus spores was prepared in filter-sterilized MOPS-RPMI 1640 (RPMI 1640 medium containing 2 mM L-glutamine, 2% glucose, and 0.165 M MOPS, buffered to pH 7 with NaOH) to a final concentration of 8 × 10^6 spores ml^-1. […] Samples for baseline determinations were collected by scraping, pelleted by centrifugation at 2,000 rpm for 5 min, and stored at -80°C. Test compounds or DMSO (50 μl) was added to the remaining dishes, which were subsequently gently rocked by hand to disperse the compounds. […] Samples were collected and processed as described above. […] These samples were prepared in the laboratory at Pulmocide Ltd. and sent to the laboratory at the Centre for Cytochrome P450 Biodiversity, Institute of Life Science, […] University Medical School, for experimentation. Nonsaponifiable lipids were extracted as previously reported ([29]) and were derivatized with 0.1 ml N,O-bis(trimethylsilyl)trifluoroacetamide:trimethylchlorosilane (99:1) and 0.3 ml anhydrous pyridine (2 h at 80°C) prior to analysis by gas chromatography-mass spectrometry ([38]). Sterol composition was calculated using peak areas from the gas chromatograms, and the mass fragmentation patterns compared to known standards were used to confirm sterol identity. The sterol contents of A. fumigatus (basal) and treated A. fumigatus (treated with either DMSO, posaconazole, or PC945) were determined.

[11] = Precipitation in EUCAST medium; assay type: physicochemical
[12] = system: Aspergillus flavus (ATCC 204304); test: MIC, CLSI; assay type: cell-based; conditions: ATCC204304, 1 strain, CLSI, read-out: MIC
[13] = system: Mucor circinelloides (ATCC 8542); test: MIC, CLSI; assay type: cell-based; conditions: ATCC8542, 1 strain
[14] = system: Aureobasidium pullulans (ATCC 9348); test: MIC, CLSI; assay type: cell-based; conditions: ATCC9348, 1 strain
[15] = system: Candida krusei (ATCC 6258); test: MIC, CLSI; assay type: cell-based; conditions: Pichia kudriavzevii, ATCC6258; 1 strain, CLSI; read-out: MIC
[16] = system: Cladosporium argillaceum (ATCC 38013); test: MIC, CLSI; assay type: cell-based; conditions: Rhizocladosporium argillaceum, ATCC38013, 1 strain
AfCYP51A = AfCYP51A (Aspergillus fumigatus, UniProt Q4WNT5); test: A. fumigatus CYP51 binding assay (ligand titration, type II difference spectra); parameters: made in house
Method: A. fumigatus CYP51 binding properties were determined as described by Warrilow et al. ([35]). Test agents were titrated against 4 μM recombinant A. fumigatus CYP51A or CYP51B protein, and binding saturation curves were constructed from the change in the absorbance between the spectral peak and the trough. A rearrangement of the Morrison equation was used to determine the dissociation constant (Kd) values when ligand binding was tight ([36]).

[17] = 1 h contact before infection, GM readout after 24 h, read-out: BEAS2B cells IC50, No washout
[18] = 1 h contact, 24-h washout prior to infection, GM readout, read-out: BEAS2B cells IC50, Washout
[19] = 96 clinical isolates, determined visually
[20] = Aspergillus fumigatus, read-out: MIC, Geometric mean
[21] = Aspergillus fumigatus, read-out: MIC, Mode
[22] = Rhizopus arrhizus, ATCC11145, 1 strain, read-out: MIC

Sequence of AfCYP51A (Q4WNT5 whole entry): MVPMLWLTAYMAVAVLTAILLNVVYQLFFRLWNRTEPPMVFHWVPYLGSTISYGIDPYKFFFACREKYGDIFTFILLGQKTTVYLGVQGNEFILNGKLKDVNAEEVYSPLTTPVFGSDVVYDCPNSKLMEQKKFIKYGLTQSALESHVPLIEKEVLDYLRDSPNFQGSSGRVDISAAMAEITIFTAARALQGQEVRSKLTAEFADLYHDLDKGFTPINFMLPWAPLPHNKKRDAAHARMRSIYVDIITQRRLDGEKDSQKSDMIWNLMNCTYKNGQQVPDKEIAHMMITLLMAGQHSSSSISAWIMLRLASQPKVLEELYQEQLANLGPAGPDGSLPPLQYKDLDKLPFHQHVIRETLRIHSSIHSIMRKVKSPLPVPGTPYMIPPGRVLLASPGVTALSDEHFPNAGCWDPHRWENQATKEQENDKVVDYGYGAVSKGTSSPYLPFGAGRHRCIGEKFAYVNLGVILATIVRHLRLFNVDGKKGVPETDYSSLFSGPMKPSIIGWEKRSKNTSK

## Cc1cc(N2CCN(c3ccc(C(=O)Nc4ccc(F)cc4)cc3)CC2)ccc1OC[C@@H]1CO[C@@](Cn2cncn2)(c2ccc(F)cc2F)C1 [PC945, 4-[4-(4-{[(3R,5R)-5-(2,4-difluorophenyl)-5-(1H-1,2,4-triazol-1-ylmethyl)oxolan-3-yl]methoxy}-3-methylphenyl)piperazin-1-yl]-N-(4-fluorophenyl)benzamide]
[1]
  MIC: > 8 µg/mL
[2]; [17]
  IC50: 0.0037 µg/mL (≈ 0.00542 µM)
[2]; [18]
  IC50: 0.043 µg/mL (≈ 0.063 µM)
[3]
  IC50: 0.0001 µg/mL (≈ 0.000146 µM)
[3]; no washout
  fold more potent than posaconazole at inhibiting hyphal growth: 4.5 fold
  fold more potent than voriconazole at inhibiting hyphal growth: 110 fold
Plasma protein binding
  plasma protein binding: high levels of plasma protein binding
[4]
  MIC: > 8 µg/mL
[5]; 5 of the 13 posaconazole-resistant isolates, NW Mycology Centre
  concentration up to which growth was not completely inhibited: > 8 µg/mL
[5]; 96 clinical isolates
  fold more potent than voriconazole, based on the geometric mean: 2.5 fold
[5]; [19]
  MIC90: 1 µg/mL (≈ 1.46 µM)
  MIC, Geometric mean: 0.17* μg/ml
[5]; Aspergillus fumigatus
  MIC50: 0.125 µg/mL (≈ 0.183 µM)
  MIC90: 1 µg/mL (≈ 1.46 µM)
[5]; [20]
  MIC: 0.17 µg/mL (≈ 0.249 µM)
[5]; [21]
  MIC: 0.125 µg/mL (≈ 0.183 µM)
[6]
  MIC: 0.25 µg/mL (≈ 0.366 µM)
[7]
  MIC: 4 µg/mL (≈ 5.86 µM)
[8]; 1 strain
  MIC: 2 µg/mL (≈ 2.93 µM)
[8]; [22]
  MIC: 2 µg/mL (≈ 2.93 µM)
[9]
  MIC: > 8 µg/mL
[10]
  MIC: > 8 µg/mL
A. fumigatus; 0.0001 μg/ml
  Sterol content in cells, Eburicol: 0%
  Sterol content in cells, Ergost-5,7-dienol: 4.1%
  Sterol content in cells, Ergosterol: 95.9%
  Sterol content in cells, Lanosterol: 0%
A. fumigatus; 0.001 μg/ml
  Sterol content in cells, Eburicol: 2.7%
  Sterol content in cells, Ergost-5,7-dienol: 2.5%
  Sterol content in cells, Ergosterol: 94.7%
  Sterol content in cells, Lanosterol: 0%
A. fumigatus; 0.01 μg/ml
  Sterol content in cells, Eburicol: 6.5%
  Sterol content in cells, Ergost-5,7-dienol: 3.3%
  Sterol content in cells, Ergosterol: 86.7%
  Sterol content in cells, Lanosterol: 3.6%
A. fumigatus; 0.1 μg/ml
  Sterol content in cells, Eburicol: 13.2%
  Sterol content in cells, Ergost-5,7-dienol: 0%
  Sterol content in cells, Ergosterol: 80.6%
  Sterol content in cells, Lanosterol: 6.2%
A. fumigatus; 1 μg/ml
  Sterol content in cells, Eburicol: 19.3%
  Sterol content in cells, Ergost-5,7-dienol: 0%
  Sterol content in cells, Ergosterol: 71.3%
  Sterol content in cells, Lanosterol: 9.4%
[11]
  concentration at which compound precipitated in EUCAST medium: > 4000 ng/mL
[12]
  MIC: > 8 µg/mL
[13]
  MIC: > 8 µg/mL
[14]
  MIC: > 8 µg/mL
[15]
  MIC: 0.125 µg/mL (≈ 0.183 µM)
[16]
  MIC: > 8 µg/mL
AfCYP51A
  Kd: 500 nM
  difference spectra on titration against purified CYP51A: type II difference spectra

## CC[C@@H]([C@H](C)O)n1ncn(-c2ccc(N3CCN(c4ccc(OC[C@@H]5CO[C@@](Cn6cncn6)(c6ccc(F)cc6F)C5)cc4)CC3)cc2)c1=O [Posaconazole, posaconazole]
[1]
  MIC: > 8 µg/mL
[2]; [17]
  IC50: 0.0031 µg/mL (≈ 0.00442 µM)
[2]; [18]
  IC50: 0.046 µg/mL (≈ 0.0656 µM)
[2]; washout versus no washout
  BEAS2B cells Fold change: 14.7 fold
[3]
  IC50: 0.00045 µg/mL (≈ 0.000642 µM)
  Hyphae Fold change: 4.90 fold
[3]; listed as posaconazole
  Hyphae Fold change: 4.9 fold
[4]
  MIC: 0.2 µg/mL (≈ 0.285 µM)
[5]; [19]
  MIC, Range: 0.016 to 2 µg/mL
[5]; Aspergillus fumigatus
  MIC50: 0.063 µg/mL (≈ 0.0899 µM)
  MIC90: 0.5 µg/mL (≈ 0.713 µM)
[5]; Aspergillus fumigatus, ATCC204305, read-out: MIC, quality control strain
  MIC: 0.25 µg/mL (≈ 0.357 µM)
[5]; [20]
  MIC: 0.1 µg/mL (≈ 0.143 µM)
[5]; [21]
  MIC: 0.032 µg/mL (≈ 0.0457 µM)
[6]
  MIC: 0.5 µg/mL (≈ 0.713 µM)
[7]
  MIC: 0.063 µg/mL (≈ 0.0899 µM)
[8]; 1 strain
  MIC: >8 µg/mL
[8]; [22]
  MIC: > 8 µg/mL
[9]
  MIC: 0.25 µg/mL (≈ 0.357 µM)
[10]
  MIC: > 8 µg/mL
A. fumigatus; 0.0001 μg/ml
  Sterol content in cells, Eburicol: 2.2%
  Sterol content in cells, Ergost-5,7-dienol: 3.3%
  Sterol content in cells, Ergosterol: 94.5%
  Sterol content in cells, Lanosterol: 0%
A. fumigatus; 0.001 μg/ml
  Sterol content in cells, Eburicol: 5.9%
  Sterol content in cells, Ergost-5,7-dienol: 3.9%
  Sterol content in cells, Ergosterol: 87.2%
  Sterol content in cells, Lanosterol: 3.0%
A. fumigatus; 0.01 μg/ml
  Sterol content in cells, Eburicol: 18.3%
  Sterol content in cells, Ergost-5,7-dienol: 0%
  Sterol content in cells, Ergosterol: 74.7%
  Sterol content in cells, Lanosterol: 7.0%
A. fumigatus; 0.1 μg/ml
  Sterol content in cells, Eburicol: 23.4%
  Sterol content in cells, Ergost-5,7-dienol: 0%
  Sterol content in cells, Ergosterol: 67.8%
  Sterol content in cells, Lanosterol: 8.8%
A. fumigatus; 1 μg/ml
  Sterol content in cells, Eburicol: 23.8%
  Sterol content in cells, Ergost-5,7-dienol: 0%
  Sterol content in cells, Ergosterol: 67.4%
  Sterol content in cells, Lanosterol: 8.8%
[12]
  MIC: 0.13 µg/mL (≈ 0.186 µM)
[13]
  MIC: > 8 µg/mL
[14]
  MIC: 1 µg/mL (≈ 1.43 µM)
[16]
  MIC: 0.25 µg/mL (≈ 0.357 µM)
AfCYP51A
  Kd: 960 nM
